According to US20240208992A1, “MACROCYCLES AS CFTR MODULATORS” (Idorsia Pharmaceuticals Ltd, priority 2021, published 2024):

Target: human F508del-CFTR (Homo sapiens, UniProt P13569, DEL508-508)
Test: F508del-CFTR cell surface expression (corrector activity), DiscoveRx ß-galactosidase complementation chemiluminescence assay in recombinant U2OS cell line;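 further: U2OS cells co-expressing ProLink-tagged F508del-CFTR and a membrane-anchored enzyme acceptor, where more surface CFTR restores β-galactosidase activity measured by chemiluminescence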
Conditions: U2OS cell line, 16h compound incubation; for EC50: EC50, F508del-CFTR cell surface expression, geomean values; for Emax: U2OS, in relation to the Emax of the corrector lumacaftor (=100%), arithmetic mean values

human F508del-CFTR, sequence (P13569 with tags, fused parts or gaps DEL508-508): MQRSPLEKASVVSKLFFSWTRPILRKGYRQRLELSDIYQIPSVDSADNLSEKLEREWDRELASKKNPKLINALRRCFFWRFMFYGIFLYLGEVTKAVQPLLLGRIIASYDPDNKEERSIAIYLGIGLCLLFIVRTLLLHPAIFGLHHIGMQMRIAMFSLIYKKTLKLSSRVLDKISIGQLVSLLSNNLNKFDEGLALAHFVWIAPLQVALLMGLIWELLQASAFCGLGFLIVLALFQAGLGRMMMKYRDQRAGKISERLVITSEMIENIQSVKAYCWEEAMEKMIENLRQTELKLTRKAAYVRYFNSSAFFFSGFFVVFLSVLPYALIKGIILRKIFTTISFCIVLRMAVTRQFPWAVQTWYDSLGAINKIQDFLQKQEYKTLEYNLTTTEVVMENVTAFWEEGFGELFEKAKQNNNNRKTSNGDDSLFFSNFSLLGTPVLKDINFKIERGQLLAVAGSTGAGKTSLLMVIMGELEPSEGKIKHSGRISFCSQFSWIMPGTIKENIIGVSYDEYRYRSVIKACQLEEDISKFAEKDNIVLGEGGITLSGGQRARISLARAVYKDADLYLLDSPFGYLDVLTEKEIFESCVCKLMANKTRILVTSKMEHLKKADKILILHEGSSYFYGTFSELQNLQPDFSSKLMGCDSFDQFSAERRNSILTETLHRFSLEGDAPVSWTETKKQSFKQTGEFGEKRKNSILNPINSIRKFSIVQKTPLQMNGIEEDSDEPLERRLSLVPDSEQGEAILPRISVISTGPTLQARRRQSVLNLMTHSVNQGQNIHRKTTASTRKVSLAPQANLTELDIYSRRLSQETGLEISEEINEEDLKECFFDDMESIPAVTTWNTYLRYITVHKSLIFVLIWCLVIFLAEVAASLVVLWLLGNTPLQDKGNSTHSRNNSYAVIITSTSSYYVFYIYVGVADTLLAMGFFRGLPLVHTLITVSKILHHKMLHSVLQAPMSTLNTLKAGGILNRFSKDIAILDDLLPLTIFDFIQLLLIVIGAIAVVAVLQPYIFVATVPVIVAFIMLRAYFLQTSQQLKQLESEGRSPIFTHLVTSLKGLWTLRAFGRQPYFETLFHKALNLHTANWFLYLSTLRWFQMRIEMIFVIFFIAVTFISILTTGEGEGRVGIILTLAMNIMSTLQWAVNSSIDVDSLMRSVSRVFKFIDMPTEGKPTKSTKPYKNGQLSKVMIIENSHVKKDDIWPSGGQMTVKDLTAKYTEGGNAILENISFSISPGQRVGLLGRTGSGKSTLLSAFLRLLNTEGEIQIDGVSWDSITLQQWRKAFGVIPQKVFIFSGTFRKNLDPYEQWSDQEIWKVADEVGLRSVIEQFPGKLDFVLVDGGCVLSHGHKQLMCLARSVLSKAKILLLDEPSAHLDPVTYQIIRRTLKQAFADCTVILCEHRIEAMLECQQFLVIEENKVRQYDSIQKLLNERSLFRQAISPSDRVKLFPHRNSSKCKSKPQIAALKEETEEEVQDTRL

Row | SMILES | EC50 [nM] | Emax [%]
1 | Cc1onc(CCNC(=O)[C@@H]2CC(=O)N(C)[C@@H](CC(C)C)C(=O)N3CCOC[C@@H]3C(=O)N[C@H](Cc3ccccc3)COc3ccc4ccccc4c3C(=O)N2)c1C [Example 70, (4aR,7R,18S,22S)-7-benzyl-N-(2-(4,5-dimethylisoxazol-3-yl)ethyl)-22-isobutyl-21-methyl-5,16,20,23-tetraoxo-1,2,4,4a,5,6,7,8,16,17,18,19,20,21,22,23-hexadecahydronaphtho[1,2-p][1,4]oxazino[3,4-f][1]oxa[4,7,10,14]tetraazacycloheptadecine-18-carboxamide] | 754 | 202
2 | COc1cc(CCNC(=O)[C@@H]2CC(=O)N(C)[C@@H](CC(C)C)C(=O)N3CCCC[C@@H]3C(=O)N[C@H](Cc3ccccc3)COc3cnc4ccccc4c3C(=O)N2)cc(OC)c1 [Example 71, (9S,13S,19aR,22R)-22-benzyl-N-(3,5-dimethoxyphenethyl)-13-isobutyl-12-methyl-7,11,14,20-tetraoxo-7,8,9,10,11,12,13,14,17,18,19,19a,20,21,22,23-hexadecahydro-16H-pyrido[2′,11:6,7][1]oxa[4,7,10,14]tetraazacycloheptadecino[17,16-c]quinoline-9-carboxamide] | 338 | 326
3 | CC(C)C[C@H]1C(=O)N2CCCC[C@@H]2C(=O)N[C@H](Cc2ccccc2)COc2cnc3ccccc3c2C(=O)N[C@H](C(=O)NCCc2c(F)cccc2F)CC(=O)N1C [Example 72, (9S,13S,19aR,22R)-22-benzyl-N-(2,6-difluorophenethyl)-13-isobutyl-12-methyl-7,11,14,20-tetraoxo-7,8,9,10,11,12,13,14,17,18,19,19a,20,21,22,23-hexadecahydro-16H-pyrido[2′,1′:6,7][1]oxa[4,7,10,14]tetraazacycloheptadecino[17,16-c]quinoline-9-carboxamide] | 142 | 335
4 | CC(C)C[C@H]1C(=O)N2CCCC[C@@H]2C(=O)N[C@H](Cc2ccccc2)COc2cnc3ccccc3c2C(=O)N[C@H](C(=O)NCCc2c(F)cc(F)cc2F)CC(=O)N1C [Example 73, (9S,13S,19aR,22R)-22-benzyl-13-isobutyl-12-methyl-7,11,14,20-tetraoxo-N-(2,4,6-trifluorophenethyl)-7,8,9,10,11,12,13,14,17,18,19,19a,20,21,22,23-hexadecahydro-16H-pyrido[2′,1′:6,7][1]oxa[4,7,10,14]tetraazacycloheptadecino[17,16-c]quinoline-9-carboxamide] | 214 | 253
5 | COc1cc(F)c(CCNC(=O)[C@@H]2CC(=O)N(C)[C@@H](CC(C)C)C(=O)N3CCCC[C@@H]3C(=O)N[C@H](Cc3ccccc3)COc3cnc4ccccc4c3C(=O)N2)c(F)c1 [Example 74, (9S,13S,19aR,22R)-22-benzyl-N-(2,6-difluoro-4-methoxyphenethyl)-13-isobutyl-12-methyl-7,11,14,20-tetraoxo-7,8,9,10,11,12,13,14,17,18,19,19a,20,21,22,23-hexadecahydro-16H-pyrido[2′,1′:6,7][1]oxa[4,7,10,14]tetraazacycloheptadecino[17,16-c]quinoline-9-carboxamide] | 128 | 271
6 | CC(C)C[C@H]1C(=O)N2CCCC[C@@H]2C(=O)N[C@H](Cc2ccccc2)COc2cnc3ccccc3c2C(=O)N[C@H](C(=O)NCCc2ccc(F)c(F)c2)CC(=O)N1C [Example 75, (9S,13S,19aR,22R)-22-benzyl-N-(3,4-difluorophenethyl)-13-isobutyl-12-methyl-7,11,14,20-tetraoxo-7,8,9,10,11,12,13,14,17,18,19,19a,20,21,22,23-hexadecahydro-16H-pyrido[2′,1′:6,7][1]oxa[4,7,10,14]tetraazacycloheptadecino[17,16-c]quinoline-9-carboxamide] | 255 | 191
